pIC50: −log10 of the molar value. Converted amounts (≈) assume the structure as drawn. Like-named read-outs stand apart in the source and are kept apart here.
Columns and labels:
[1] = system: Trypanosoma cruzi (Tulahuen C4); assay: In vitro anti-T. cruzi activity (β-galactosidase CPRG colorimetric assay in VERO monolayer); format: cell-based; settings: for Selectivity Index Lab B: IC50, VERO/IC50, T. cruzi; for IC50 / inhibition at 10 µg/mL / pIC50: Trypanosoma cruzi, TULAHUEN, Vero; for inhibition at 10 µg/mL: 120 h, 10 μg/mL of each compound, 120 hours, read-out: T. cruzi Inhib. (%); for pIC50: Table 3, read-out: IC50 T. cruzi
[2] = Toxicity to peritoneal macrophages (Trypan Blue count); format: cell-based, BALB/C mouse; settings: BALB/C, mouse, Cytotoxicity Macrophages IC50
Protocol: (§1) Peritoneal macrophages were prepared as follows. Non-inflammatory macrophages (10^6) were collected from each BALB/C mouse. The cells adhered at 37° C. after 2 h under 5% CO2 in a CO2 incubator. The plates were then rinsed two to three times with 0.5 mL of RPMI+buffer MOPS without fetal calf serum to eliminate non-adhering cells. The supernatant on the plates was replaced by fresh medium (RPMI+glutamine+FCS+antibiotics), 0.5 mL of medium per well. To determine the toxicity of the compounds to macrophages, dilutions of compounds were added on a part of the macrophages prepared above. […] The medium was then removed and 1 μL of sterile Trypan Blue was added. Cover glasses N° 1 were left where cells were plated and then the number of macrophages in a microscope was determined with a haemocytometer. All experiments were performed in triplicate.

[3] = system: M. tuberculosis H37Rv; assay: Conventional aerobic (MABA) culture assay, luminescence MIC; format: cell-based, Mycobacterium tuberculosis; settings: Mycobacterium tuberculosis, 168 h; aerobic, 7 days, H37Rv
[4] = system: VERO cells; assay: Cell growth inhibition bioassay (sulforhodamine B); format: cell-based, African Green Monkey; settings: Chlorocebus sabaeus, Vero; 48 h, SRB; read-out: GI50 in indicated cell line: VERO
Protocol: (§2) The cytotoxicity of compounds was assayed as follows. […] Appropriate solvent controls were tested for comparison. The percent inhibition of cell growth relative to the control was evaluated colorimetrically using a sulforhodamine B dye by comparison to the control. The calorimetric procedure followed that published in Skehan et al., J. Nat. Cancer Inst., […], pp. 1107-1112 (1990) and Boyd & Paull, Drug Dev. Res., Vol. 34, pp. 91-109 (1995). […] The cell lines are: 3T3 cells are BALB/3T3 clone A31 embryonic mouse fibroblast cells; H460 cells are human large cell lung cancer cells; DU145 cells are human prostate carcinoma cells; MCF-7 cells are human breast adenocarcinoma cells; M-14 cells are human melanoma cells; HT-29 cells are human colon adenocarcinoma cells; PC3 cells are human prostate adenocarcinoma cells; K562 cells are human chronic myelogenous leukemia cells; and VERO cells are African Green Monkey kidney epithelial cells.

[5] = system: 3T3 cells; assay: Cell growth inhibition bioassay (sulforhodamine B); format: cell-based, mouse; settings: Mus musculus, NIH3T3; 48 h, SRB; read-out: GI50 in indicated cell line: 3T3
Protocol: as §2

[6] = Cytotoxicity on VERO cells (MTT), anti-T. cruzi study; settings: African green monkey
[7] = system: axenic amastigotes of L. amazonensis (strain MHOM/BR/76/LTB-012); settings: Table 8b
[8] = system: axenic amastigotes of L. amazonensis (strain MHOM/BR/76/LTB-012); assay: microbe, parasite or virus in culture; settings: Leishmania amazonensis
[9] = system: M-14 cells; assay: Cell growth inhibition bioassay (sulforhodamine B); format: cell-based, human; settings: Homo sapiens, M14; 48 h, SRB; read-out: GI50 in indicated cell line: M-14
Protocol: as §2

[10] = system: H460 cells; assay: Cell growth inhibition bioassay (sulforhodamine B); format: cell-based, human; settings: Homo sapiens, NCI-H460; 48 h, SRB; read-out: GI50 in indicated cell line: H460
Protocol: as §2

[11] = system: MCF-7 cells; assay: Cell growth inhibition bioassay (sulforhodamine B); format: cell-based, human; settings: Homo sapiens, MCF7; 48 h, SRB; read-out: GI50 in indicated cell line: MCF-7
Protocol: as §2

[12] = system: K562 cells; assay: Cell growth inhibition bioassay (sulforhodamine B); format: cell-based, human; settings: Homo sapiens, K562; 48 h, SRB; read-out: GI50 in indicated cell line: K562
Protocol: as §2

[13] = system: DU145 cells; assay: Cell growth inhibition bioassay (sulforhodamine B); format: cell-based, human; settings: Homo sapiens, DU-145; 48 h, SRB; read-out: GI50 in indicated cell line: DU145
Protocol: as §2

[14] = system: HT-29 cells; assay: Cell growth inhibition bioassay (sulforhodamine B); format: cell-based, human; settings: Homo sapiens, HT-29; 48 h, SRB; read-out: GI50 in indicated cell line: HT-29
Protocol: as §2

[15] = system: peritoneal macrophages; assay: Toxicity to peritoneal macrophages (Trypan Blue count); format: cell-based, BALB/C mouse; settings: Mus musculus, Peritoneal macrophage, 48 h, read-out: IC50 Macrophage
Protocol: as §1

[16] = system: VERO cells; assay: Cytotoxicity on VERO cells (MTT), anti-T. cruzi study; settings: Chlorocebus sabaeus, Vero
[17] = Lab B, read-out: T. cruzi IC50 Lab B
[18] = VERO cells, Cytotoxicity VERO Lab B, Lab B
[19] = Table 2, read-out: IC50 - T. cruzi
[20] = 72 h, read-out: IC50 L. amazonensis
[21] = Lab A, read-out: T. cruzi IC50 Lab A
[22] = VERO cells, IC50 - VERO Cytotoxicity, Table 2

SMILES | Selectivity Index Lab B ([1]; Lab B) | IC50 [1, 17] [µg/mL] | IC50 at 48 h [2] [µM] | MIC [3] [µg/mL] | GI50 [4] [µg/mL] | GI50 [5] [µg/mL] | IC50 [6, 18] [µg/mL] | Selectivity Index [7] | pIC50 ([8]; read-out: L. amazonensis IC50) | GI50 [9] [µg/mL] | GI50 [10] [µg/mL] | GI50 [11] [µg/mL] | GI50 [12] [µg/mL] | GI50 [13] [µg/mL] | GI50 [14] [µg/mL] | inhibition at 10 µg/mL [1] [%] | IC50 [1, 19] [µg/mL] | pIC50 [1] | pIC50 [8, 20] | pIC50 ([16]; read-out: IC50 VERO, Table 3) | other results
C(=N/Nc1ncnc2sc3c(c12)CCCC3)/c1cccc2ccccc12 [II-02] | 0.2 | 4.7 | 6 | > 100 | 4.3 (≈ 12 µM) | 6 (≈ 16.7 µM) | 1 (≈ 2.79 µM) | 1.3 | 5.34 | 6.6 (≈ 18.4 µM) | 7.1 (≈ 19.8 µM) | 2.3 (≈ 6.42 µM) | 1.7 (≈ 4.74 µM) | 8.6 (≈ 24 µM) | 2.2 (≈ 6.14 µM) |  |  |  |  |  | 
C=CCOc1cc(OC)c(C(=O)/C=C/c2ccccc2Br)c(OCC=C)c1 [Compound I-16] |  |  |  |  |  |  |  |  |  |  |  |  |  |  |  | 63.4 | 5.95 | 4.86 | 5.10 |  | pIC50 [15]: 5.27; IC50 [6]: 6 µg/mL (≈ 14 µM); pIC50 ([16]; read-out: IC50 VERO): 4.86
C(=N/Nc1ncnc2sc3c(c12)CCCC3)/c1ccc2c(c1)OCO2 [II-12] | 0.7 | 8 | 5.7 | > 100 | > 93.8 | > 93.8 | 6 (≈ 17 µM) | 0.6 | 4.98 | > 93.8 | > 93.8 | 41.4 (≈ 117 µM) | > 93.8 | > 93.8 | > 93.8 |  |  |  |  |  | IC50 [1, 21]: 2.3 µg/mL
C=CCOc1cc(OC)c(C(=O)/C=C/c2ccc(C)cc2)c(OCC=C)c1 [Compound I-24, (2E)-1-[2-Methoxy-4,6-bis(2-propenyloxy)phenyl]-3-(4-methylphenyl)-2-propen-1-one] |  |  |  |  |  |  |  |  |  |  |  |  |  |  |  | 60.2 | 6.28 | 4.76 | 4.10 | 3.68 | IC50 [6, 22]: 77 µg/mL (≈ 211 µM)
C=CCOc1cc(OC)c(C(=O)/C=C/c2ccc(O)cc2)c(OCC=C)c1 [Compound I-09, (2E)-1-[2-Methoxy-4,6-bis(2-propenyloxy)phenyl]-3-(4-hydroxyphenyl)-2-propen-1-one] |  |  |  |  |  |  |  |  |  |  |  |  |  |  |  | 52.6 | 7.44 | 4.69 | 4.07 | 4.12 | IC50 [6, 22]: 28 µg/mL (≈ 76.4 µM)
C=CCOc1cc(OC)c(C(=O)/C=C/c2ccco2)c(OCC=C)c1 [Compound I-28, (2E)-3-(2-furanyl)-1-[2-methoxy-4,6-bis(2-propenyloxy)phenyl]-2-propen-1-one] |  |  |  |  |  |  |  |  |  |  |  |  |  |  |  | 59.1 | 4.14 | 4.91 | < 3.52 | 3.72 | IC50 [6, 22]: 65 µg/mL (≈ 191 µM)
C=CCOc1cc(OC)c(C(=O)/C=C/c2ccc(OC)cc2OC)c(OCC=C)c1 [Compound I-17, (2E)-3-(2,4-Dimethoxyphenyl)-1-[2-methoxy-4,6-bis(2-propenyloxy)phenyl]-2-propen-1-one] |  |  |  |  |  |  |  |  |  |  |  |  |  |  |  | 67.8 | 5.38 | 4.88 | 3.87 | 4.03 | IC50 [6, 22]: 38 µg/mL (≈ 92.6 µM)
COc1ccc(/C=N\Nc2ncnc3sc4c(c23)CCCC4)c(OC)c1 [II-13] | 1.8 | 6.8 | 53 | > 100 | 17.7 (≈ 48 µM) | 7.3 (≈ 19.8 µM) | 12 (≈ 32.6 µM) | 4.3 | 4.91 | 34.8 (≈ 94.4 µM) | 10.9 (≈ 29.6 µM) | 7.8 (≈ 21.2 µM) | 2.9 (≈ 7.87 µM) | 7.4 (≈ 20.1 µM) | 7.4 (≈ 20.1 µM) |  |  |  |  |  | 
CC(C)c1ccc(/C=N\Nc2ncnc3sc4c(c23)CCCC4)cc1 [II-07] | 0.5 | 1.8 | 3 | > 100 | 2.1 (≈ 5.99 µM) | 3.3 (≈ 9.42 µM) | 1 (≈ 2.85 µM) | 2.3 | 5.89 | 6.2 (≈ 17.7 µM) | 2.1 (≈ 5.99 µM) | 1.8 (≈ 5.14 µM) | 1.4 (≈ 3.99 µM) | 3.8 (≈ 10.8 µM) | 2.1 (≈ 5.99 µM) |  |  |  |  |  | IC50 [1, 21]: 0.9 µg/mL
CC1CS(=O)(=O)CCN1/N=C/c1ccc([N+](=O)[O-])o1 (stereo not shown) [Nifurtimox, reference compound] |  |  |  |  |  |  |  |  |  |  |  |  |  |  |  |  |  | 6.28 |  | 4.10 | 
C=CCOc1cc(/C=N\Nc2ncnc3sc4c(c23)CCCC4)cc(OCC=C)c1Br [II-17] | 0.4 | 7.7 | 1.7 | > 100 | 2.2 (≈ 4.4 µM) | < 0.98 | 3 (≈ 6.01 µM) | 0.7 | 5.59 | 6.4 (≈ 12.8 µM) | 1.6 (≈ 3.2 µM) | 1.9 (≈ 3.8 µM) | 2 (≈ 4 µM) | < 0.98 | 1.9 (≈ 3.8 µM) |  |  |  |  |  | IC50 [1, 21]: 10.2 µg/mL
CC(C)(C)c1ccc(/C=N\Nc2ncnc3sc4c(c23)CCCC4)cc1 [II-08] | 1.2 | 4.1 | 2.4 | > 100 | 2.5 (≈ 6.86 µM) | 8.4 (≈ 23 µM) | 5 (≈ 13.7 µM) | 3.8 | 6.22 | 11 (≈ 30.2 µM) | 2.3 (≈ 6.31 µM) | 2.3 (≈ 6.31 µM) | 2.3 (≈ 6.31 µM) | 8 (≈ 21.9 µM) | 5.7 (≈ 15.6 µM) |  |  |  |  |  | IC50 [1, 21]: 1.3 µg/mL
C=CCOc1cc(OC)c(C(=O)/C=C/c2ccc(C(F)(F)F)cc2)c(OCC=C)c1 [Compound I-12, (2E)-1-[2-Methoxy-4,6-bis(2-propenyloxy)phenyl]-3-[4-(trifluoromethyl)phenyl]-2-propen-1-one] |  |  |  |  |  |  |  |  |  |  |  |  |  |  |  | 64.2 | 6.53 | 4.81 | 3.89 | 5.14 | IC50 [6, 22]: 3 µg/mL (≈ 7.17 µM)
C(=N/Nc1ncnc2sc3c(c12)CCCC3)/c1ccc2ccccc2c1 [II-03] | 1.1 | 4.8 | 5.7 | > 100 | 2.9 (≈ 8.09 µM) | 10 (≈ 27.9 µM) | 5 (≈ 13.9 µM) | 0.4 | 4.85 | 12.6 (≈ 35.1 µM) | 7.4 (≈ 20.6 µM) | 3.3 (≈ 9.21 µM) | 2.2 (≈ 6.14 µM) | 8.7 (≈ 24.3 µM) | 6.9 (≈ 19.2 µM) |  |  |  |  |  | 
C=CCOc1cc(OC)c(C(=O)/C=C/c2cc(OCC=C)c(Br)c(OCC=C)c2)c(OCC=C)c1 [Compound I-25, (2E)-3-(3,5-Bis(2-propenyloxy)-4-bromophenyl)-1-[2-methoxy-4,6-bis(2-propenyloxy)phenyl]-2-propen-1-one] |  |  |  |  |  |  |  |  |  |  |  |  |  |  |  | 51.2 | 3.73 | 5.16 | < 3.74 | 4.02 | IC50 [6, 22]: 52 µg/mL (≈ 96 µM)
C=CCOc1cc(OC)c(C(=O)/C=C/c2ccncc2)c(OCC=C)c1 [Compound I-26, (2E)-1-[2-Methoxy-4,6-bis(2-propenyloxy)phenyl]-3-(4-pyridinyl)-2-propen-1-one] |  |  |  |  |  |  |  |  |  |  |  |  |  |  |  | 73.6 | 0.52 | 5.82 | 6.22 | 5.55 | IC50 [6, 22]: 1 µg/mL (≈ 2.85 µM)
